# Patent US20260242373A1, “NBD1 MODULATORS AND METHODS OF USING THE SAME” (Sionna Therapeutics Inc., priority 2023, published 2026)
# Test system: NBD1
# Experiment: Aggregation analysis of NBD1 thermal stability by differential static light scattering (DSLS)
# Format: binding, Human
# Conditions: 100 μM compound; ΔTagg versus DMSO control
# Description: Purified recombinant NBD1 was produced using previously described methods (A. Schmidt, J. L. Mendoza, P. J. Thomas (2011) Biochemical and Biophysical Approaches to Probe CFTR Structure (365-376) M. D. Amaral, K. Kunzelmann (eds.), Cystic Fibrosis, Methods in Molecular Biology 741, Springer Science+Business Media). The effect of test compounds on thermal stability of NBD1 was evaluated by differential static light scattering (DSLS) using the Harbinger Stargazer-384 instrument (Epiphyte Three, Toronto, Canada). Test compounds were dissolved and diluted to desired concentrations in 100% DMSO. The compounds or DMSO controls (100 nL) were stamped into wells of a […] low volume optical plate (Corning Inc., Corning, NY) using the Echo 555 acoustic liquid handler (Labcyte Inc., San Jose, CA).
# NBD1 protein was diluted to 0.2 mg/ml in S200 buffer (50 mM Tris-HCl, 150 mM NaCl, 5 mM MgCl2, 2 mM ATP, 2 mM DTT, pH7.6) containing 1% glycerol. 10 uL of protein solution was aliquoted into the 384-well plate harboring the test compounds and 10 uL mineral oil was overlayed onto the protein solution, using the epMotion robotic liquid handler (Eppendorf North America, Hauppauge, NY). After placing into the Stargazer instrument, the plate was heated at 1° C. per minute to 70° C. Images were captured from 25° C. to 70° C. every 0.5° C. At the end of the experiment run, instrument software integrated image files and analyzed data automatically. A […] regression curve was generated for each well, representing the increase in light scattering over time. A temperature of aggregation (Tagg) was calculated based on the inflection point of the curve. To better compare data across experiments the average Tagg for DMSO control wells was calculated and subtracted from values for wells containing compounds to obtain a “ΔTagg” value. These ΔTagg values reflect stabilizing efficacy of the compounds.
row,Compound,DSLS NBD1/3D Human Stability delta-T (° C.) @ 100 (μM)
1,"CC(c1cccc(CCC(=O)O)c1F)c1nc(-c2cc(Oc3c(F)cc4[nH]ccc4c3F)ccc2F)n2c1CCCC2 (stereo not drawn) [Compound 47, 3-(3-(1-(3-(5-((4,6-difluoro-1H-indol-5-yl)oxy)-2-fluorophenyl)-5,6,7,8-tetrahydroimidazo[1,5-a]pyridin-1-yl)ethyl)-2-fluorophenyl)propanoic acid]",C (C: ≤4° C.)
2,"Cc1ncc(Cc2nnc(-c3cccc(Oc4ccc5[nH]ccc5c4)c3)[nH]2)s1 [Compound 18, 5-((5-(3-((1H-indol-5-yl)oxy)phenyl)-4H-1,2,4-triazol-3-yl)methyl)-2-methylthiazole]",B (B: 4-8° C.)
3,"OC(Cc1nccs1)c1cnc(-c2cccc(Oc3ccc4[nH]cnc4c3)c2)[nH]1 (stereo not drawn) [Compound 34, 1-(2-(3-((1H-benzo[d]imidazol-5-yl)oxy)phenyl)-1H-imidazol-5-yl)-2-(thiazol-2-yl)ethan-1-ol]",C (C: ≤4° C.)
4,"c1cc(Oc2ccc3[nH]ccc3c2)cc(-c2nnc(Cc3cncs3)[nH]2)c1 [Compound 14, 5-((5-(3-((1H-indol-5-yl)oxy)phenyl)-4H-1,2,4-triazol-3-yl)methyl)thiazole]",C (C: ≤4° C.)
5,"O[C@H](Cc1cncs1)c1c[nH]c(-c2cccc(Oc3ccc4[nH]ccc4c3)c2)n1 (single isomer, unassigned) [Compound 23]",B (B: 4-8° C.)
6,"Clc1ccc(Cc2n[nH]c(-c3cccc(Oc4cc5cc[nH]c5cn4)c3)n2)s1 [Compound 19, 5-(3-(3-((5-chlorothiophen-2-yl)methyl)-1H-1,2,4-triazol-5-yl)phenoxy)-1H-pyrrolo[2,3-c]pyridine]",C (C: ≤4° C.)
7,"O=C(O)CCn1ccc(Cc2cnc(-c3cc(Oc4c(F)cc5[nH]ccc5c4F)ccc3F)[nH]2)n1 [Compound 5, 3-(3-((2-(5-((4,6-difluoro-1H-indol-5-yl)oxy)-2-fluorophenyl)-1H-imidazol-5-yl)methyl)-1H-pyrazol-1-yl)propanoic acid]",B (B: 4-8° C.)
8,"CC(c1cc(N)n(-c2cc(Oc3c(F)cc4[nH]ccc4c3F)ccc2F)n1)c1cccc(CCC(=O)O)c1F (stereo not drawn) [Compound 48, 3-(3-(1-(5-amino-1-(5-((4,6-difluoro-1H-indol-5-yl)oxy)-2-fluorophenyl)-1H-pyrazol-3-yl)ethyl)-2-fluorophenyl)propanoic acid]",B (B: 4-8° C.)
9,"CC(c1cccc(CC(=O)O)c1F)n1cc(F)c(-c2ccc(F)c(Oc3c(F)cc4[nH]ccc4c3S(C)(=O)=O)c2)n1 (stereo not drawn) [Compound 55, 2-(2-fluoro-3-(1-(4-fluoro-3-(4-fluoro-3-((6-fluoro-4-(methylsulfonyl)-1H-indol-5-yl)oxy)phenyl)-1H-pyrazol-1-yl)ethyl)phenyl)acetic acid]",A (A: T ≥8° C.)
10,"O=C(O)CCc1ccc(Cc2cnc(-c3cc(Oc4c(F)cc5[nH]ccc5c4F)ccc3F)[nH]2)s1 [Compound 43, 3-(5-((2-(5-((4,6-difluoro-1H-indol-5-yl)oxy)-2-fluorophenyl)-1H-imidazol-5-yl)methyl)thiophen-2-yl)propanoic acid]",A (A: T ≥8° C.)
11,"Cn1cc(C(O)c2cnc(-c3cccc(Oc4ccc5[nH]ccc5c4)c3)[nH]2)cn1 (stereo not drawn) [Compound 27, (2-(3-((1H-indol-5-yl)oxy)phenyl)-1H-imidazol-5-yl)(1-methyl-1H-pyrazol-4-yl)methanol]",B (B: 4-8° C.)
12,"Cc1c(Oc2ccc(F)c(-c3nc(Cc4csc(CCC(=O)O)n4)c[nH]3)c2)c(F)cc2[nH]ccc12 [Compound 1, 3-(4-((2-(2-fluoro-5-((6-fluoro-4-methyl-1H-indol-5-yl)oxy)phenyl)-1H-imidazol-4-yl)methyl)thiazol-2-yl)propanoic acid]",B (B: 4-8° C.)
